From ChEMBL document CHEMBL1125860 (J Med Chem, 1991) come the findings set out here.

In general, inhibition refers to the relative decrease from the control value, in per cent. Broadly, the inhibition in vivo is how much of the control response was suppressed. By Inhibition is commonly meant how much of the control response was suppressed. Usually IC50 stands for the point on the concentration scale where inhibition reaches its midpoint. Broadly, the ED50 is the dose at which the effect has come halfway, by size or by number of responders. A high value points to weaker potency.

The source made the active and inactive calls. The calls are words filed in the database; no cut-off is given here.

The subject of assay [1] is Rattus norvegicus. The assay can be described thus: In vivo inhibition of galactitol accumulation in sciatic nerves of rat at 49 mg/kg/day; Not significant. The format is functional, organism-based. The following applies: Sciatic nerve.
Assay [2] concerns Rattus norvegicus. The experiment in a line: In vivo inhibition of galactitol accumulation in diaphragm of rat at 49 mg/kg/day. The format is functional.
The target of assay [3] is Aldo-keto reductase family 1 member B1 (Bos taurus) (UniProt P16116). The assay can be described thus: In vitro % decrease of aldose reductase measured in isolated partially purified bovine lens preparations at 10e-7 M concentration.
For assay [4], the species on record is Rattus norvegicus. The assay can be described thus: In vitro inhibition of sorbitol accumulation was measured in rat sciatic nerves incubated in the presence of 50 mM glucose at 10e-6 M concentration. The format is functional, Sciatic nerve.
In assay [5] the test system is Rattus norvegicus. The experiment in a line: In vivo inhibition of galactitol accumulation in sciatic nerves of rat at 43 mg/kg/day; Not significant. In kind it is functional, organism-based. The note with it: Sciatic nerve.
Assay [6] concerns Rattus norvegicus. The assay can be described thus: In vivo inhibition of galactitol accumulation in diaphragm of rat at 43 mg/kg/day; Not significant. In kind it is functional, organism-based.
The species named for assay [7] is Rattus norvegicus. The assay can be described thus: In vitro inhibition of sorbitol accumulation was measured in rat sciatic nerves incubated in the presence of 50 mM glucose at 10e-5 M concentration. In kind it is functional, Sciatic nerve.
For assay [8], the system named is Rattus norvegicus. The experiment in a line: In vivo inhibition of galactitol accumulation in sciatic nerves of rat at 25 mg/kg/day. In kind it is functional. The following applies: Sciatic nerve.
Assay [9] deals with Rattus norvegicus. The experiment in a line: In vivo inhibition of galactitol accumulation in diaphragm of rat at 15 mg/kg/day. In kind it is functional.
Assay [10] has as its system Rattus norvegicus. The experiment in a line: In vivo inhibition of galactitol accumulation in diaphragm of rat at 25 mg/kg/day. In kind it is functional.
The test system of assay [11] is Rattus norvegicus. The experiment in a line: In vivo inhibition of galactitol accumulation in sciatic nerves of rat at 15 mg/kg/day. The format is functional. The note with it: Sciatic nerve.
For assay [12], the system named is Rattus norvegicus. The assay can be described thus: In vivo inhibition of galactitol accumulation in diaphragm of rat at 5 mg/kg/day. In kind it is functional.
For assay [13], the species on record is Rattus norvegicus. The assay can be described thus: Inhibition of galactitol accumulation in sciatic nerves of rat incubated in presence of 50 mM glucose. In kind it is functional, organism-based. The following applies: Sciatic nerve.
The species entered for assay [14] is Rattus norvegicus. The experiment in a line: Inhibition of galactitol accumulation in rat lens incubated in presence of 50 mM glucose. The format is functional, organism-based. The note with it: Lens of camera-type eye.
Assay [15] deals with Rattus norvegicus. The experiment in a line: In vivo inhibition of galactitol accumulation in sciatic nerves of rat at 5 mg/kg/day. In kind it is functional. The note with it: Sciatic nerve.
For assay [16], the species on record is Rattus norvegicus. The experiment in a line: Inhibition of aldose reductase activity was measured by measuring […] in the RBC of galactose fed rat. The format is functional.
Assay [17] is filed under the species Rattus norvegicus. The experiment in a line: Inhibition of galactitol accumulation in rat RBC incubated in presence of 50 mM glucose. In kind it is functional, organism-based.
Assay [18] deals with Aldo-keto reductase family 1 member B1 (Bos taurus, UniProt P16116). The experiment in a line: Inhibition of aldose reductase activity was measured on partially purified bovine lens preparations incubated in presence of 50 mM glucose.
For assay [19], the species on record is Rattus norvegicus. The experiment in a line: Inhibition of aldose reductase activity was measured by measuring […] in the sciatic nerves of galactose fed rat. In kind it is functional. The note with it: Sciatic nerve.
The species entered for assay [20] is Rattus norvegicus. The experiment in a line: Inhibition of aldose reductase activity was measured by measuring sorbitor accumulation in the sciatic nerves of STZ diabetic rat. In kind it is functional. The note with it: Sciatic nerve.
For assay [21], the system named is Rattus norvegicus. The experiment in a line: In vivo inhibition of galactitol accumulation in sciatic nerves of rat at 10 mg/kg/day. The format is functional. The following applies: Sciatic nerve.
Assay [22] relates to Rattus norvegicus. The assay can be described thus: In vivo inhibition of galactitol accumulation in diaphragm of rat at 10 mg/kg/day. The format is functional.
For assay [23], the system named is Rattus norvegicus. The assay can be described thus: In vivo inhibition of galactitol accumulation in sciatic nerves at 5 mg/kg/day; Not significant. In kind it is functional, organism-based. The following applies: Sciatic nerve.
Assay [24] has as its system Rattus norvegicus. The experiment in a line: In vivo inhibition of galactitol accumulation in sciatic nerves of rat at 114 mg/kg/day; Not significant. In kind it is functional, organism-based. The note with it: Sciatic nerve.
In assay [25] the test system is Rattus norvegicus. The experiment in a line: In vivo inhibition of galactitol accumulation in diaphragm of rat at 114 mg/kg/day; Not significant. In kind it is functional, organism-based.
Assay [26] deals with Rattus norvegicus. The assay can be described thus: In vivo inhibition of galactitol accumulation in diaphragm of rat at 25 mg/kg/day; […]. In kind it is functional, organism-based.
Assay [27] has as its system Rattus norvegicus. The assay can be described thus: In vivo inhibition of galactitol accumulation in sciatic nerves of rat at 25 mg/kg/day; Not significant. The format is functional, organism-based. The following applies: Sciatic nerve.
In assay [28] the target is Aldo-keto reductase family 1 member B1 (Bos taurus) (UniProt P16116). The experiment in a line: In vitro % decrease of aldose reductase was measured in isolated partially purified bovine lens preparations at 10e-7 M concentration; Not active.
Assay [29] concerns Rattus norvegicus. The experiment in a line: In vivo inhibition of galactitol accumulation in sciatic nerves of rat at 53 mg/kg/day; Not significant. In kind it is functional, organism-based. The note with it: Sciatic nerve.
Assay [30] deals with Rattus norvegicus. The experiment in a line: In vivo inhibition of galactitol accumulation in diaphragm of rat at 53 mg/kg/day; Not significant. The format is functional, organism-based.
Assay [31] deals with Rattus norvegicus. The experiment in a line: In vivo inhibition of galactitol accumulation in sciatic nerves of rat at 105 mg/kg/day; Not significant. In kind it is functional, organism-based. The following applies: Sciatic nerve.
In assay [32] the test system is Rattus norvegicus. The experiment in a line: In vivo inhibition of galactitol accumulation in diaphragm of rat at 105 mg/kg/day. The format is functional.
The target of assay [33] is Aldo-keto reductase family 1 member B1 (Bos taurus) (UniProt P16116). The experiment in a line: In vitro % decrease of aldose reductase was measured in isolated partially purified bovine lens preparations at 10e-6 M concentration.
Assay [34] concerns Rattus norvegicus. The assay can be described thus: In vivo inhibition of galactitol accumulation in sciatic nerves of rat at 47 mg/kg/day; Not significant. In kind it is functional, organism-based. The following applies: Sciatic nerve.
Assay [35] has as its system Rattus norvegicus. The experiment in a line: In vivo inhibition of galactitol accumulation in diaphragm of rat at 47 mg/kg/day; Not significant. The format is functional, organism-based.
Assay [36] concerns Rattus norvegicus. The experiment in a line: In vivo inhibition of galactitol accumulation in sciatic nerves of rat at 5 mg/kg/day; Not significant. The format is functional, organism-based. The following applies: Sciatic nerve.
Assay [37] concerns Rattus norvegicus. The experiment in a line: In vivo inhibition of galactitol accumulation in sciatic nerves of rat at 20 mg/kg/day; Not significant. The format is functional, organism-based. The following applies: Sciatic nerve.
The test system of assay [38] is Rattus norvegicus. The assay can be described thus: In vivo inhibition of galactitol accumulation in diaphragm of rat at 20 mg/kg/day; Not significant. The format is functional, organism-based.
Assay [39] deals with Rattus norvegicus. The assay can be described thus: In vivo inhibition of galactitol accumulation in sciatic nerves of rat at 24 mg/kg/day. In kind it is functional. The note with it: Sciatic nerve.
In assay [40] the test system is Rattus norvegicus. The experiment in a line: In vivo inhibition of galactitol accumulation in diaphragm of rat at 24 mg/kg/day. The format is functional.

Turning to `CCCCOc1ccc2c(C(F)(F)F)c(OC)ccc2c1C(=O)N(C)CC(=O)O`, the inhibition entry in assay [1] was “inactive”. The compound also showed an inhibition in vivo at 49 mg/kg/day in [2] of 55%. In assay [3], this compound had an inhibition of 42%.
In the case of `CCOC(=O)N(CC(=O)O)C(=O)c1c(Br)ccc2c(C(F)(F)F)c(OC)ccc12`, the Inhibition in [4] was determined as 52%; in [7], 73%. In addition, the inhibition result in [5] and in [6] was “inactive” in each case. In assay [3], the inhibition is 76%.
Take `CCOC(=O)N(CC(=O)O)C(=O)c1c(F)ccc2c(C(F)(F)F)c(OC)ccc12`: the Inhibition came out at 51% in [4] and 75% in assay [7]. Further, the inhibition in vivo at 25 mg/kg/day was found to be 70% in assay [8] and 65% in assay [10]. The inhibition in vivo at 15 mg/kg/day worked out at 59% in assay [9] and 55% in assay [11]. Besides, the inhibition in [3] was found to be 87%.
As for `COC(=O)N(CC(=O)O)C(=O)c1c(F)ccc2c(C(F)(F)F)c(OC)ccc12`, the Inhibition in [4] came to 36%; in assay [7], 61%. Besides, the inhibition in vivo at 5 mg/kg/day in assay [12] stood at 52%; in assay [15] it was 50%. Moreover, the IC50 is 2800 nM in assay [13], 340 nM in [14], 19 nM in [17] and 25 nM in assay [18]. Further, the ED50 in assay [16] came to 3.5 mg/kg; in assay [19], 4.8 mg/kg; in assay [20] it was 4 mg/kg. Besides, the inhibition in vivo at 10 mg/kg/day in assay [21] was 61%; in assay [22] it was 62%. In assay [3], this compound came in with an inhibition of 86%.
In the case of `COc1ccc2c(C(=S)N(C)CC(=O)O)c(F)ccc2c1C(F)(F)F`, the inhibition entry in assay [23] is “inactive”. Besides, the inhibition in vivo at 25 mg/kg/day in assay [8] was 92%; in assay [10], 93%.
`COc1ccc2c(C(=O)N(C)CC(=O)O)cc(C)cc2c1Br`: the Inhibition in assay [4] was found to be 20%; in [7], 52%. For the same compound, the inhibition entry in assay [24] and in [25] was “inactive” throughout. Further, in assay [3], the inhibition is 63%.
Take `COc1ccc2c(C(=O)N(C)CC(N)=O)c(OCC(F)(F)F)ccc2c1C(F)(F)F`: the inhibition result in assay [26], in assay [27] and in [28] was “inactive” throughout.
In the case of `COc1ccc2c(C(F)(F)F)c(OC)ccc2c1C(=O)N(C)CC(=O)O`, the Inhibition in [4] is given as 33%; in assay [7] it was 48%. The inhibition entry in [29] and in assay [30] was “inactive” throughout. The same compound gave an inhibition in assay [3] of 62%.
Take `COc1c(C)cc2c(C(=S)N(C)CC(=O)O)cccc2c1Br`: the inhibition entry in assay [31] is “inactive”. Further, the inhibition in vivo at 10 mg/kg/day in assay [21] was 54%; in assay [22] it was 87%. Moreover, the inhibition in vivo at 105 mg/kg/day in [32] stood at 34%. The same compound registered an inhibition in assay [3] of 8%.
Turning to `COc1ccc2c(C(=O)N(C)CC(=O)O)c(C(C)(C)C)ccc2c1C(F)(F)F`, the inhibition in assay [33] came to 23%; in [3], 6%. In addition, the inhibition entry in [34] and in assay [35] was “inactive” in each case.
`O=C(O)Cc1nn(Cc2nc3cc(C(F)(F)F)ccc3s2)c(=O)c2ccccc12` [ZOPOLRESTAT] registered an inhibition in vivo at 5 mg/kg/day in assay [12] of 88%. For the same compound, the inhibition entry in assay [36] is “inactive”. In addition, the inhibition in vivo at 10 mg/kg/day in assay [21] was found to be 70%; in assay [22] it was 80%. The inhibition in assay [3] was found to be 89%.
For the compound `COc1ccc2c(C(=S)N(C)CC(N)=O)cc(C)cc2c1Br`, the inhibition entry in assay [37], in assay [28] and in [38] was “inactive” throughout. For the same compound, the values for the inhibition in vivo at 24 mg/kg/day in assay [39] and in assay [40] were 68% and 70%, respectively.
